Values of other authors, collected in publication PMC5742115, “Pharmacophore Modeling and in Silico/in Vitro Screening for Human Cytochrome P450 11B1 and Cytochrome P450 11B2 Inhibitors” (Frontiers in Chemistry, 2017).
pIC50: −log10 of the molar value. Where two headings read alike, the source gives them in different places.

What was measured:
CYP11B1 = conditions: reported activity, supplementary Table 1, read-out: CYP11B1 IC50, cited from earlier work
CYP11B2 = conditions: reported activity, supplementary Table 1, read-out: CYP11B2 IC50, cited from earlier work

SMILES	pIC50 (CYP11B1; ref Heim et al., 2008)	pIC50 (CYP11B2; ref Heim et al., 2008)	pIC50 (CYP11B1; ref Lucas et al., 2008b)	pIC50 (CYP11B2; ref Lucas et al., 2008b)	other results
Fc1ccc2c(c1)CC/C2=C/c1cccnc1 [CHEMBL383806]					pIC50 (CYP11B1; ref Ulmschneider et al., 2005a): 6.90; pIC50 (CYP11B2; ref Ulmschneider et al., 2005a): 7.96
Clc1ccc2c(c1)CC/C2=C\c1cccnc1 [CHEMBL383807]					pIC50 (CYP11B1; ref Ulmschneider et al., 2005a): 5.83; pIC50 (CYP11B2; ref Ulmschneider et al., 2005a): 7.59
c1ccc(-c2csc(Cn3ccnc3)c2)cc1 [CHEMBL403598]					pIC50 (CYP11B1; ref Hille et al., 2011b): 7.72; pIC50 (CYP11B2; ref Hille et al., 2011b): 6.56
Fc1ccc2c(c1)CC/C2=C\c1ccncc1 [CHEMBL424960]					pIC50 (CYP11B1; ref Ulmschneider et al., 2005a): 5.96; pIC50 (CYP11B2; ref Ulmschneider et al., 2005a): 7.82
CCOc1ccc2c(c1)CC/C2=C\c1cccnc1 [CHEMBL425323]					pIC50 (CYP11B1; ref Ulmschneider et al., 2005a): 5.63; pIC50 (CYP11B2; ref Ulmschneider et al., 2005a): 7.10
COC(=O)c1ccc2cc(-c3cccnc3)ccc2c1 [CHEMBL438802]					pIC50 (CYP11B1; ref Voets et al., 2005): 4.98; pIC50 (CYP11B2; ref Voets et al., 2005): 7.14
CCOc1cncc(-c2ccc3cc(OC)ccc3c2)c1 [CHEMBL445259]	6.43	8.29			
CN1C(=O)CCc2cc(-c3cccnc3)ccc21 [CHEMBL446083]			6.13	8.59	
COc1cncc(-c2ccc3cc(OC)ccc3c2)c1 [CHEMBL447591]	6.62	8.38			
COc1ccc2cc(-c3cncc(CO)c3)ccc2c1 [CHEMBL448064]	6.21	8.04			
COc1ccc2cc(-c3cnccc3CO)ccc2c1 [CHEMBL449894]	5.75	7.66			
CN1C(=O)CCc2cc(-c3cncc4ccccc34)ccc21 [CHEMBL451505]			8.16	10.00	
COc1ccc2cc(-c3cnccc3N)ccc2c1 [CHEMBL453169]	5.82	7.89			
O=C1CCc2cc(-c3cncc4ccccc34)ccc2N1 [CHEMBL456390]			7.48	9.70	
CCN1C(=O)CCc2cc(-c3cccnc3)ccc21 [CHEMBL457425]			5.29	7.66	
O=C1CCc2cc(-c3cccnc3)cc(Cl)c2N1 [CHEMBL457640]			5.78	8.42	
COc1cncc(-c2ccc3c(c2)CCC(=O)N3)c1 [CHEMBL457646]			6.47	8.57	
COc1cncc(-c2ccc3c(c2)CCC(=O)N3C)c1 [CHEMBL457856]			7.06	9.70	
COC1CCc2cc(-c3cccnc3)ccc2C1 (stereo not drawn) [CHEMBL460178]			5.94	8.48	
c1cncc(-c2ccc3c(c2)CCCC3)c1 [CHEMBL461457]			5.70	7.54	

SMILES	pIC50 (CYP11B1; ref Heim et al., 2008)	pIC50 (CYP11B2; ref Heim et al., 2008)	pIC50 (CYP11B1; ref Lucas et al., 2008b)	pIC50 (CYP11B2; ref Lucas et al., 2008b)	other results
OC1CCc2cc(-c3cccnc3)ccc2C1 (stereo not drawn) [CHEMBL461458]			5.31	7.36	
N#CC1=Cc2ccc(-c3cccnc3)cc2CC1 [CHEMBL461884]			6.54	8.80	
O=C1CCc2cc(-c3cccnc3)ccc2C1 [CHEMBL462093]			5.40	8.11	
c1ccc(Cn2cncc2-c2ccccc2)cc1 [CHEMBL463582]					pIC50 (CYP11B1; ref Roumen et al., 2010): 8.32; pIC50 (CYP11B2; ref Roumen et al., 2010): 7.96
COc1cncc(-c2ccc3c(c2)CCC(=O)C3)c1 [CHEMBL499007]			6.72	8.74	
COc1ccc2c(c1)CC(C)C(c1cncc3ccccc13)=C2 (stereo not drawn) [CHEMBL499044]	7.19	9.30			
COc1ccc2cc(-c3cccnc3)c(C)cc2c1 [CHEMBL499871]	5.98	8.15			
COc1cncc(C2=Cc3ccc(OC)cc3CC2C)c1 (stereo not drawn) [CHEMBL500145]	7.00	8.92			
COC(=O)c1cncc(-c2ccc3cc(OC)ccc3c2)c1 [CHEMBL500146]	7.82	9.10			
COc1ccc2cc(-c3cncc(C(C)OC)c3)ccc2c1 (stereo not drawn) [CHEMBL500392]	8.00	9.70			
COc1ccc2cc(-c3cncc(-c4ccccc4)c3)ccc2c1 [CHEMBL500393]	6.82	8.32			
COc1ccc2cc(-c3cncc4ccccc34)ccc2c1 [CHEMBL500394]	7.17	9.22			
COc1ccc2cc(-c3cncc(C(C)O)c3)ccc2c1 (stereo not drawn) [CHEMBL500395]	7.00	9.30			
COCc1cncc(-c2ccc3cc(OC)ccc3c2)c1 [CHEMBL500421]	7.51	9.70			
COc1ccc2cc(-c3cncc(O)c3)ccc2c1 [CHEMBL500636]	5.05	7.03			
N#Cc1ccc2c(c1)CCC(c1cccnc1)=C2 [CHEMBL500663]	6.34	8.35			
COc1ccc2cc(-c3cnccc3C)ccc2c1 [CHEMBL500664]	6.94	9.10			
Cc1ccncc1-c1ccc2cc(C#N)ccc2c1 [CHEMBL500665]	7.28	9.22			
COCc1ccncc1-c1ccc2cc(OC)ccc2c1 [CHEMBL500676]	6.36	8.66			
